Experimental data taken from publication PMC10313921, “A living ex vivo platform for functional, personalized brain cancer diagnosis” (Cell Reports Medicine, 2023).

Experiments:
Format in all cases: cell-based, human
[1] = test system: MS21 (low-passage patient-derived GBM line); assay: Drug screening of MS21 tumor foci on OBSCs; conditions: for Killing at highest dose / AUC: MS21 on OBSCs; for AUC: area under the dose-response curve, trapezoidal rule
Method in brief: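 Bioluminescence viability readout, 3 d post-treatment, normalized to day-1 tumor fluorescence vs untreated; 6 drug concentrations or XRad, n = 4 foci per concentration. Drug sensitivity score sums weighted parameters comparing tumor kill with OBSC toxicity, ranging −100 to 100.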

[2] = test system: LN229 (established GBM line); assay: Drug screening of LN229 tumor foci on OBSCs; conditions: for EC50 / EC90 / IC50: Homo sapiens; for EC50: LN-229, dose required to kill 50% of the tumor; for EC90: LN-229, dose required to kill 90% of the tumor; for IC50: LN-229, dosed day 1, survival via bioluminescence day 4, linear interpolation; for AUC: area under the dose-response curve, trapezoidal rule; for EC10: dose required to kill 10% of the tumor; for EC25: dose required to kill 25% of the tumor; for Slope: slope through the EC50
Method in brief: (§1)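 Tumor foci (25,000 cells) were seeded onto organotypic brain slice cultures 2 h after slicing, two per slice; one day later six drug concentrations were added to the medium or X-ray was applied. Bioluminescence was read 3 days after treatment, normalized to day-one fluorescence and to untreated controls.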

[3] = test system: U373WT (wild-type established GBM line); assay: Drug screening of U373WT tumor foci on OBSCs; conditions: for EC50 / EC90 / IC50: Homo sapiens, U373 MG; for EC50 / EC90 / IC50 / Killing at highest dose / AUC / EC10 / EC25 / Slope: U373 WT on OBSCs; for EC50: dose required to kill 50% of the tumor; for EC90: dose required to kill 90% of the tumor; for IC50: dosed day 1, survival via bioluminescence day 4, linear interpolation; for AUC: area under the dose-response curve, trapezoidal rule; for EC10: dose required to kill 10% of the tumor; for EC25: dose required to kill 25% of the tumor; for Slope: slope through the EC50
Method in brief: as §1

[4] = test system: U373KO (RAD18 knockout of U373WT via CRISPR); assay: Drug screening of U373KO tumor foci on OBSCs; conditions: U373 KO on OBSCs; for EC50 / EC90 / IC50: Homo sapiens, U373 MG; for EC50: dose required to kill 50% of the tumor; for EC90: dose required to kill 90% of the tumor; for IC50: dosed day 1, survival via bioluminescence day 4, linear interpolation; for AUC: area under the dose-response curve, trapezoidal rule; for EC10: dose required to kill 10% of the tumor; for EC25: dose required to kill 25% of the tumor; for Slope: slope through the EC50
Method in brief: as §1

[5] = test system: PIS patient tumor tissue (intracranial sarcoma); assay: Drug screening of uncultured patient tumor tissue PIS on OBSCs
Procedure: (§2) Tumor cells were seeded onto OBSCs 2h after slicing as described above. One day after tumor seeding, six concentrations of each drug were diluted in the media underneath each culture insert, or XRad was applied using an X-Rad 320 Precision X-ray machine (n = 4 tumor foci per concentration; n ≥ 24 tumor foci per drug per cell line). Three days after treatment, the bioluminescence of live tumor cells was measured using an AMI optical imager (Spectral Instruments) and dose-response curves were generated. Tumor survival was normalized to day one tumor fluorescence and compared to an untreated control group.
(§3) To engraft onto OBSCs, the cryopreserved/thawed or fresh brain tumor tissue was filtered through a 100 μm cell strainer. Each 50 mg of tissue was transfected with 1mL mcherry-FLuc Lentivirus at 1.5e7 vg/ml with 1μL polybrene for 4h at 37°C. After incubation, the brain tumor tissue was washed with PBS three times to remove the residual virus and reconstituted in PBS with a final volume of 150 μL. Then the tissue solution was engrafted atop OBSCs at ∼0.5 mg tissue in 3 μL of PBS on each hemisphere of the slice. The OBSC engrafted with patient tumor tissue was incubated at 37°C with 5% CO2 and 95% humidity. The BSM was changed after 24h and subsequently every 3 days. Tumor treatment studies were executed as described above for tumor lines. The viability of the patient tissue was measured by an AMI optical imaging system with the addition of 1.5 mg/mL luciferin underneath the culture insert.
(§4) Several weighted parameters were factored into an overall drug sensitivity score.
(§5) For DSS parameters 1–6, therapeutic windows were calculated by comparing OBSC toxicity and tumor response at the doses where tumor kill passed through the DSS parameter (Table S1 and S3). For DSS parameter 7, the therapeutic window was calculated by comparing the slopes through the tumor EC50 and the OBSC tox EC50. For DSS parameter 8, the therapeutic window was calculated by comparing the areas under tumor kill and OBSC tox curves. Normalized therapeutic window ratios for DSS parameters 1–8 within each drug-tumor-OBSC interaction were calculated in the following manner: within each window, values ranged from +1 to −1, where values approaching +1 signify increasing tumor kill relative to normal tissue toxicity, and values approaching −1 indicate agents where tumors remained highly viable while toxicity to the normal OBSC tissue was elevated. DSS parameters 9–11 were determined based on the behavior of the tumor in response to the drug, as defined above.
(§6) All individually weighed parameters were added together to generate the DSS. Overall DSS from 0 to 100 signify increasing efficacy in tumor kill relative to OBSC toxicity, while scores from 0 to −100 describe scenarios in which tumors thrive more effectively than OBSCs for a given treatment. Dose-response values were calculated via linear interpolation of raw data, not from best-fit curve equations.

[6] = test system: GBM8 (high-passage patient-derived GBM line); assay: Drug screening of GBM8 tumor foci on OBSCs; conditions: for Killing at highest dose / AUC / EC10 / EC25 / EC75 / Slope: GBM8 on OBSCs; for AUC: area under the dose-response curve, trapezoidal rule; for EC10: dose required to kill 10% of the tumor; for EC25: dose required to kill 25% of the tumor; for EC75: dose required to kill 75% of the tumor; for Slope: slope through the EC50; for EC50 / EC90 / IC50: Homo sapiens
Method in brief: as §1

[7] = test system: MB231Br (breast cancer metastasis to brain); assay: Drug screening of MB231Br tumor foci on OBSCs; conditions: for EC50 / EC90 / IC50: Homo sapiens; for EC50: dose required to kill 50% of the tumor; for EC90: dose required to kill 90% of the tumor; for IC50: MB231Br on OBSCs, dosed day 1, survival via bioluminescence day 4, linear interpolation; for AUC: area under the dose-response curve, trapezoidal rule; for Slope: slope through the EC50
[8] = test system: 7 cell lines (MB231Br, LN229, U373WT, U373KO, GBM8, MS21, PDIPG); assay: Drug screening on OBSCs, summary over the panel of seven tumor lines; conditions: number of lines responding
Method in brief: as §1

[9] = test system: PDIPG (low-passage pediatric patient-derived line); assay: Drug screening of PDIPG tumor foci on OBSCs; conditions: for EC50 / EC90 / IC50: Homo sapiens; for AUC: area under the dose-response curve, trapezoidal rule; for EC10: dose required to kill 10% of the tumor; for Slope: slope through the EC50
Method in brief: as §1

[10] = test system: PGBM-R patient tumor tissue (recurrent tumor from same patient as PGBM); assay: Drug screening of uncultured patient tumor tissue PGBM-R on OBSCs
Procedure: as §2, §3, §4, §5, §6

[11] = test system: PGBM patient tumor tissue (pediatric GBM); assay: Drug screening of uncultured patient tumor tissue PGBM on OBSCs
Procedure: as §2, §3, §4, §5, §6

COc1cc([C@@H]2c3cc4c(cc3[C@@H](O[C@@H]3O[C@@H]5CO[C@@H](C)O[C@H]5[C@H](O)[C@H]3O)[C@H]3COC(=O)[C@H]23)OCO4)cc(OC)c1O [Etoposide]
EC50 ([1]; Homo sapiens): > 10 µM
EC90 ([1]; Homo sapiens): > 10 µM
Killing at highest dose [1]: -8.00E-02 fraction of tumor population killed
AUC [1]: 1.15E+03
Killing at highest dose [2]: 4.40E-01 fraction of tumor population killed
EC50 [2]: > 10 µM
EC90 [2]: > 10 µM
IC50 [2]: > 10 µM
AUC [2]: 6.48E+02
EC10 [2]: 3.7 µM
EC25 [2]: 9.26 µM
Slope [2]: -1.73E-04
EC50 [3]: 260 µM
EC90 [3]: > 10 µM
IC50 [3]: 260 µM
Killing at highest dose [3]: 3.30E-01 fraction of tumor population killed
AUC [3]: 6.12E+02
EC10 [3]: 25.6 µM
EC25 [3]: 65.4 µM
Slope [3]: -1.26E-04
DSS (drug sensitivity score) ([3]; U373 WT, scale -100 to +100, tumor kill relative to OBSC toxicity): −13
EC50 [4]: 37.8 µM
EC90 [4]: > 10 µM
IC50 [4]: 38 µM
Killing at highest dose [4]: 6.38E-01 fraction of tumor population killed
AUC [4]: 3.37E+02
EC10 [4]: 2.42 µM
EC25 [4]: 6.06 µM
Slope [4]: -3.13E-03
DSS (drug sensitivity score) ([5]; PIS patient tissue, scale -100 to +100): 80
Killing at highest dose [6]: 1.00E+00 fraction of tumor population killed
AUC [6]: 8.40E+00
EC10 [6]: 0.558 µM
EC25 [6]: 1.74 µM
EC75 [6]: 7.47 µM
Slope [6]: -8.73E-02
EC50 [6]: 4.6 µM
EC90 [6]: 9.19 µM
IC50 [6]: 5.2 µM
EC50 ([7]; MB231BR on OBSCs): 100 µM
EC90 ([7]; MB231BR on OBSCs): > 10 µM
IC50 [7]: 100 µM
Killing at highest dose ([7]; MB231BR on OBSCs): 7.20E-01 fraction of tumor population killed
AUC ([7]; MB231BR on OBSCs): 4.75E+02
EC10 ([7]; MB231BR on OBSCs, dose required to kill 10% of the tumor): 5.26 µM
EC25 ([7]; MB231BR on OBSCs, dose required to kill 25% of the tumor): 25 µM
Slope ([7]; MB231BR on OBSCs): -3.00E-03
response / killing over the 7 cell lines [8]: 6 of 7
EC50 [9]: 574 µM
EC90 [9]: > 10 µM
IC50 [9]: 574 µM
Killing at highest dose ([9]; PDIPG on OBSCs): 7.50E-01 fraction of tumor population killed
AUC ([9]; PDIPG on OBSCs): 6.75E+02
EC10 ([9]; PDIPG on OBSCs): 222 µM
EC25 ([9]; PDIPG on OBSCs, dose required to kill 25% of the tumor): 242 µM
EC75 ([9]; PDIPG on OBSCs, dose required to kill 75% of the tumor): 1000 µM
Slope ([9]; PDIPG on OBSCs): -5.87E-04

CC(=O)Nc1cccc(-n2c(=O)n(C3CC3)c(=O)c3c(Nc4ccc(I)cc4F)n(C)c(=O)c(C)c32)c1 [Trametinib]
EC50 ([1]; Homo sapiens): > 10 µM
EC90 ([1]; Homo sapiens): > 10 µM
IC50 ([1]; Homo sapiens): > 10 µM
Killing at highest dose [1]: -5.00E-02 fraction of tumor population killed
AUC [1]: 1.26E+02
Killing at highest dose [2]: 5.60E-01 fraction of tumor population killed
EC50 [2]: 18.6 µM
EC90 [2]: > 10 µM
IC50 [2]: 19 µM
AUC [2]: 4.96E+01
EC10 [2]: 0.668 µM
EC25 [2]: 3.46 µM
Slope [2]: -1.47E-02
EC50 [3]: > 10 µM
EC90 [3]: > 10 µM
IC50 [3]: > 10 µM
Killing at highest dose [3]: 4.80E-01 fraction of tumor population killed
AUC [3]: 5.40E+01
EC10 [3]: 0.625 µM
EC25 [3]: 2.16 µM
Slope [3]: -2.50E-04
EC50 [4]: > 10 µM
EC90 [4]: > 10 µM
IC50 [4]: > 10 µM
Killing at highest dose [4]: 3.10E-01 fraction of tumor population killed
AUC [4]: 8.91E+01
EC10 [4]: 45.8 µM
EC25 [4]: 84.5 µM
Slope [4]: -3.88E-03
EC50 ([5]; Homo sapiens, PIS on OBSCs, dose required to kill 50% of the tumor): > 100 µM
EC90 ([5]; Homo sapiens, PIS on OBSCs, dose required to kill 90% of the tumor): > 10 µM
Killing at highest dose [6]: 9.80E-01 fraction of tumor population killed
AUC [6]: 4.78E+00
EC10 [6]: 0.0313 µM
EC25 [6]: 0.0781 µM
EC75 [6]: 0.779 µM
Slope [6]: -6.33E-01
EC50 [6]: 0.384 µM
EC90 [6]: 1.67 µM
IC50 [6]: 0.38 µM
EC50 ([7]; MB231BR on OBSCs): 0.784 µM
EC90 ([7]; MB231BR on OBSCs): > 10 µM
IC50 [7]: 0.78 µM
Killing at highest dose ([7]; MB231BR on OBSCs): 7.00E-01 fraction of tumor population killed
AUC ([7]; MB231BR on OBSCs): 3.32E+01
Slope ([7]; MB231BR on OBSCs): -2.78E-01
EC90 ([10]; Homo sapiens, PGBM-R on OBSCs, dose required to kill 90% of the tumor): > 10 µM
increase of DSS in the recurrent tumor ([10]; PGBM-R relative to PGBM): 58 points
EC50 [9]: > 10 µM
EC90 [9]: > 10 µM
IC50 [9]: > 10 µM
Killing at highest dose ([9]; PDIPG on OBSCs): 1.70E-01 fraction of tumor population killed
AUC ([9]; PDIPG on OBSCs): 8.73E+01
EC10 ([9]; PDIPG on OBSCs): 30 µM
Slope ([9]; PDIPG on OBSCs): -1.00E-03
EC50 ([11]; Homo sapiens, PGBM on OBSCs, dose required to kill 50% of the tumor): > 100 µM
EC90 ([11]; Homo sapiens, PGBM on OBSCs, dose required to kill 90% of the tumor): > 10 µM
Killing at highest dose ([11]; PGBM patient tissue on OBSCs, 72 h): about one-third
DSS (drug sensitivity score) ([11]; PGBM patient tissue, scale -100 to +100): 16
